Data from patent US9409882B2, “Pyridine derivatives” (Hoffmann-La Roche Inc., priority 2012, dated 2016).

Key:
human Cathepsin S = human Cathepsin S (Homo sapiens (Human), UniProt P25774); experiment: Cathepsin enzyme inhibition assay (fluorogenic peptide substrate), human Cat S; format: biochemical; conditions: human Cat S 1 nM, substrate Z-Val-Val-Arg-AMC 20 μM, pH 6.5
Method: (§1) Cathepsin Enzyme Inhibition Assay
(§2) Enzyme activity is measured by observing the increase in fluorescence intensity caused by cleavage of a peptide substrate containing a fluorophore whose emission is quenched in the intact peptide.
(§3) Assay buffer: 100 mM potassium phosphate pH 6.5, EDTA-Na 5 mM, Triton X-100 0.001%, DTT 5 mM.
(§4) Enzymes (all at 1 nM): human and mouse Cathepsin S, Cat K, Cat B, Cat L.
(§5) Substrate (20 μM): Z-Val-Val-Arg-AMC, except for Cat K which uses Z-Leu-Arg-AMC (both from Bachem).
(§6) AMC=7-Amino-4-Methyl-Coumarin.
(§7) Excitation 360 nm, Emission 465 nm.
(§8) Enzyme is added to the substance dilutions in 96-well microtitre plates and the reaction is started with substrate. […] IC50 are calculated by standard methods.
(§9) Inhibition of human Cat S, mouse Cat S, human Cat K, human Cat B, human Cat L and mouse Cat L have been measured separately.

human Cat L = human Cat L (Homo sapiens (Human), UniProt P07711); experiment: Cathepsin enzyme inhibition assay (fluorogenic peptide substrate), human Cat L; format: biochemical; conditions: human Cat L 1 nM, substrate Z-Val-Val-Arg-AMC 20 μM, pH 6.5
Sequence of human Cat L (P07711 114-333): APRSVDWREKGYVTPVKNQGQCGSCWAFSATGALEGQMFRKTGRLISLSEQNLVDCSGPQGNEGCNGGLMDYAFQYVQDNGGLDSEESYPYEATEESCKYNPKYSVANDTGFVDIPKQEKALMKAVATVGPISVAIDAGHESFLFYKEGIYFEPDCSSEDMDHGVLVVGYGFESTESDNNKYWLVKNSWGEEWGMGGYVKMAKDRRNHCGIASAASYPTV
Method: as §1, §2, §3, §4, §5, §6, §7, §8, §9

Sequence of human Cathepsin S (P25774 115-331): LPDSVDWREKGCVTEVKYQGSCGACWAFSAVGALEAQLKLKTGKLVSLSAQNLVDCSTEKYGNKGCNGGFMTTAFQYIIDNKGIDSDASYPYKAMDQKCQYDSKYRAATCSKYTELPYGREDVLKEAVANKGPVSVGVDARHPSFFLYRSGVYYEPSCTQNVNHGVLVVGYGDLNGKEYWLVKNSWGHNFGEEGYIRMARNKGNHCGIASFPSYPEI

Compound	IC50 (human Cathepsin S) [nM]	IC50 (human Cat L) [nM]
N#CC1(NC(=O)[C@@H]2C[C@@H](S(=O)(=O)c3ccccn3)CN2C(=O)C2(c3ncc(Cl)cc3F)CC2)CC1 [Example 18, (2S,4R)-1-[1-(5-Chloro-3-fluoro-pyridin-2-yl)-cyclopropanecarbonyl]-4-(pyridine-2-sulfonyl)-pyrrolidine-2-carboxylic acid (1-cyano-cyclopropyl)-amide]	4.24	3430
Cn1cc(-c2ccc(S(=O)(=O)[C@@H]3C[C@@H](C(=O)NC4(C#N)CC4)N(C(=O)C4(c5ncc(I)cc5F)CC4)C3)c(Cl)c2)cn1 [Example 38, (2S,4R)-4-[2-Chloro-4-(1-methyl-1H-pyrazol-4-yl)-benzenesulfonyl]-1-[1-(3-fluoro-5-iodo-pyridin-2-yl)-cyclopropanecarbonyl]-pyrrolidine-2-carboxylic acid (1-cyano-cyclopropyl)-amide]	0.678	3.2
Cc1ncccc1-c1ccc(S(=O)(=O)[C@@H]2C[C@@H](C(=O)NC3(C#N)CC3)N(C(=O)C3(c4ncc(Cl)cc4Cl)CC3)C2)c(Cl)c1 [Example 37, (2S,4R)-4-[2-Chloro-4-(2-methyl-pyridin-3-yl)-benzenesulfonyl]-1-[1-(3,5-dichloro-pyridin-2-yl)-cyclopropanecarbonyl]-pyrrolidine-2-carboxylic acid (1-cyano-cyclopropyl)-amide]	0.779	72.2
N#CC1(NC(=O)[C@@H]2C[C@@H](S(=O)(=O)c3ccc(Cl)cn3)CN2C(=O)C2(c3ncc(Cl)cc3F)CC2)CC1 [Example 22, (2S,4R)-1-[1-(5-Chloro-3-fluoro-pyridin-2-yl)-cyclopropanecarbonyl]-4-(5-chloropyridine-2-sulfonyl)-pyrrolidine-2-carboxylic acid (1-cyano-cyclopropyl)-amide]	3	1970
Cc1ncccc1-c1ccc(S(=O)(=O)[C@@H]2C[C@@H](C(=O)NC3(C#N)CC3)N(C(=O)C3(c4ncc(C(F)(F)F)cc4F)CC3)C2)c(Cl)c1 [Example 35, (2S,4R)-4-[2-Chloro-4-(2-methyl-pyridin-3-yl)-benzenesulfonyl]-1-[1-(3-fluoro-5-trifluoromethyl-pyridin-2-yl)-cyclopropanecarbonyl]-pyrrolidine-2-carboxylic acid (1-cyano-cyclopropyl)-amide]	0.768	58.9
N#CC1(NC(=O)[C@@H]2C[C@H](S(=O)(=O)c3ccc(F)cc3Cl)CN2C(=O)C2(c3ncc(Cl)cc3F)CC2)CC1 [Example 15, (2S,4S)-4-(2-Chloro-4-fluoro-benzenesulfonyl)-1-[1-(5-chloro-3-fluoro-pyridin-2-yl)-cyclopropanecarbonyl]-pyrrolidine-2-carboxylic acid (1-cyano-cyclopropyl)-amide]	11.1	1680
N#CC1(NC(=O)[C@@H]2C[C@@H](Sc3ccc(Cl)cn3)CN2C(=O)C2(c3ncc(Cl)cc3F)CC2)CC1 [Example 17, (2S,4R)-1-[1-(5-Chloro-3-fluoro-pyridin-2-yl)-cyclopropanecarbonyl]-4-(5-chloro-pyridin-2-ylsulfanyl)-pyrrolidine-2-carboxylic acid (1-cyano-cyclopropyl)-amide]	264	5650
N#CC1(NC(=O)[C@@H]2C[C@@H](S(=O)(=O)c3ccccc3-n3cncn3)CN2C(=O)C2(c3ncc(I)cc3F)CC2)CC1 [Example 45, (2S,4R)-1-[1-(3-Fluoro-5-iodo-pyridin-2-yl)-cyclopropanecarbonyl]-4-(2-[1,2,4]triazol-1-yl-benzenesulfonyl)-pyrrolidine-2-carboxylic acid (1-cyano-cyclopropyl)-amide]	327	28400
N#CC1(NC(=O)[C@@H]2C[C@@H](S(=O)(=O)c3ccc(C(F)(F)F)cn3)CN2C(=O)C2(c3ncc(Cl)cc3F)CC2)CC1 [Example 24, (2S,4R)-1-[1-(5-Chloro-3-fluoro-pyridin-2-yl)-cyclopropanecarbonyl]-4-(5-trifluoromethyl-pyridine-2-sulfonyl)-pyrrolidine-2-carboxylic acid (1-cyano-cyclopropyl)-amide]	6.24	2690
N#CC1(NC(=O)[C@@H]2C[C@@H](S(=O)(=O)c3ccccc3-n3ccnn3)CN2C(=O)C2(c3ncc(I)cc3F)CC2)CC1 [Example 44, (2S,4R)-1-[1-(3-Fluoro-5-iodo-pyridin-2-yl)-cyclopropanecarbonyl]-4-(2-[1,2,3]triazol-1-yl-benzenesulfonyl)-pyrrolidine-2-carboxylic acid (1-cyano-cyclopropyl)-amide]	2.37	1560
N#CC1(NC(=O)[C@@H]2C[C@@H](S(=O)(=O)c3ccc(OCC(F)(F)F)cc3Cl)CN2C(=O)C2(c3ccc(Cl)cn3)CC2)CC1 [Example 3, (2S,4R)-1-[1-(5-Chloro-pyridin-2-yl)-cyclopropanecarbonyl]-4-[2-chloro-4-(2,2,2-trifluoro-ethoxy)-benzenesulfonyl]-pyrrolidine-2-carboxylic acid (1-cyano-cyclopropyl)-amide]	0.825	429
N#CC1(NC(=O)[C@@H]2C[C@@H](S(=O)(=O)c3ccc(-c4ccnc(Cl)c4)cc3Cl)CN2C(=O)C2(c3ncc(Cl)cc3F)CC2)CC1 [Example 32, (2S,4R)-4-[2-Chloro-4-(2-chloro-pyridin-4-yl)-benzenesulfonyl]-1-[1-(5-chloro-3-fluoro-pyridin-2-yl)-cyclopropanecarbonyl]-pyrrolidine-2-carboxylic acid (1-cyano-cyclopropyl)-amide]	0.686	112
N#CC1(NC(=O)[C@@H]2C[C@@H](Sc3ccccn3)CN2C(=O)C2(c3ncc(Cl)cc3F)CC2)CC1 [Example 12, (2S,4R)-1-[1-(5-Chloro-3-fluoro-pyridin-2-yl)-cyclopropanecarbonyl]-4-(pyridin-2-ylsulfanyl)-pyrrolidine-2-carboxylic acid (1-cyano-cyclopropyl)-amide]	594	8230

More lines, in order of falling IC50 (human Cathepsin S), values ahead:

IC50 (human Cathepsin S) [nM]	IC50 (human Cat L) [nM]	Compound
0.675	44.5	N#CC1(NC(=O)[C@@H]2C[C@@H](S(=O)(=O)c3ccc(OCC(F)(F)F)cc3Cl)CN2C(=O)C2(c3ncc(Cl)cc3F)CC2)CC1 [Example 6, (2S,4R)-1-[1-(5-Chloro-3-fluoro-pyridin-2-yl)-cyclopropanecarbonyl]-4-[2-chloro-4-(2,2,2-trifluoro-ethoxy)-benzenesulfonyl]-pyrrolidine-2-carboxylic acid (1-cyano-cyclopropyl)-amide]
0.618	362	N#CC1(NC(=O)[C@@H]2C[C@@H](S(=O)(=O)c3cc(C(F)(F)F)ccc3Cl)CN2C(=O)C2(c3ccc(Cl)cn3)CC2)CC1 [Example 29, (2S,4R)-1-[1-(5-Chloro-pyridin-2-yl)-cyclopropanecarbonyl]-4-(2-chloro-5-trifluoromethyl-benzenesulfonyl)-pyrrolidine-2-carboxylic acid (1-cyano-cyclopropyl)-amide]
0.606	410	COc1ccc(S(=O)(=O)[C@@H]2C[C@@H](C(=O)NC3(C#N)CC3)N(C(=O)C3(c4ccc(Cl)cn4)CC3)C2)c(Cl)c1 [Example 1, (2S,4R)-4-(2-Chloro-4-methoxy-benzenesulfonyl)-1-[1-(5-chloro-pyridin-2-yl)-cyclopropanecarbonyl]-pyrrolidine-2-carboxylic acid (1-cyano-cyclopropyl)-amide]
0.602	89.8	N#CC1(NC(=O)[C@@H]2C[C@@H](S(=O)(=O)c3ccc(F)cc3Cl)CN2C(=O)C2(c3ncc(Cl)cc3F)CC2)CC1 [Example 11, (2S,4R)-1-(1-(5-chloro-3-fluoropyridin-2-yl)cyclopropanecarbonyl)-4-(2-chloro-4-fluorophenylsulfonyl)-N-(1-cyanocyclopropyl)pyrrolidine-2-carboxamide]
0.6	3	N#CC1(NC(=O)[C@@H]2C[C@@H](S(=O)(=O)c3ccccc3F)CN2C(=O)C2(c3ncc(I)cc3F)CC2)CC1 [Example 41, (2S,4R)-4-(2-Fluoro-benzenesulfonyl)-1-[1-(3-fluoro-5-iodo-pyridin-2-yl)-cyclopropanecarbonyl]-pyrrolidine-2-carboxylic acid (1-cyano-cyclopropyl)-amide]
0.438	19.2	N#CC1(NC(=O)[C@@H]2C[C@@H](S(=O)(=O)c3ccccc3Cl)CN2C(=O)C2(c3ncc(Br)cc3F)CC2)CC1 [Example 8, (2S,4R)-1-[1-(5-Bromo-3-fluoro-pyridin-2-yl)-cyclopropanecarbonyl]-4-(2-chloro-benzenesulfonyl)-pyrrolidine-2-carboxylic acid (1-cyano-cyclopropyl)-amide]
0.382	9.8	Cc1ncccc1-c1ccc(S(=O)(=O)[C@@H]2C[C@@H](C(=O)NC3(C#N)CC3)N(C(=O)C3(c4ncc(I)cc4F)CC3)C2)c(Cl)c1 [Example 36, (2S,4R)-4-[2-Chloro-4-(2-methyl-pyridin-3-yl)-benzenesulfonyl]-1-[1-(3-fluoro-5-iodo-pyridin-2-yl)-cyclopropanecarbonyl]-pyrrolidine-2-carboxylic acid (1-cyano-cyclopropyl)-amide]
0.322	64.2	Cc1ncccc1-c1ccc(S(=O)(=O)[C@@H]2C[C@@H](C(=O)NC3(C#N)CC3)N(C(=O)C3(c4ncc(Cl)cc4F)CC3)C2)c(Cl)c1 [Example 34, (2S,4R)-1-[1-(5-Chloro-3-fluoro-pyridin-2-yl)-cyclopropanecarbonyl]-4-[2-chloro-4-(2-methyl-pyridin-3-yl)-benzenesulfonyl]-pyrrolidine-2-carboxylic acid (1-cyano-cyclopropyl)-amide]
